Laboratory results published in paper PMC9246256, “Structure-based optimization of type III indoleamine 2,3-dioxygenase 1 (IDO1) inhibitors” (Journal of Enzyme Inhibition and Medicinal Chemistry, 2022).
Like-named read-outs stand apart in the source and are kept apart here.

Molecular target: T1, purified recombinant IDO1 (Homo sapiens, UniProt P14902)
T1 construct: Full-length human IDO1 gene was cloned into the pET-28a vector; inferred from pET-28a vector and HisTrap purification; made in house; host or cells: E. coli Rosetta (DE3)
T1 sequence (P14902 whole entry): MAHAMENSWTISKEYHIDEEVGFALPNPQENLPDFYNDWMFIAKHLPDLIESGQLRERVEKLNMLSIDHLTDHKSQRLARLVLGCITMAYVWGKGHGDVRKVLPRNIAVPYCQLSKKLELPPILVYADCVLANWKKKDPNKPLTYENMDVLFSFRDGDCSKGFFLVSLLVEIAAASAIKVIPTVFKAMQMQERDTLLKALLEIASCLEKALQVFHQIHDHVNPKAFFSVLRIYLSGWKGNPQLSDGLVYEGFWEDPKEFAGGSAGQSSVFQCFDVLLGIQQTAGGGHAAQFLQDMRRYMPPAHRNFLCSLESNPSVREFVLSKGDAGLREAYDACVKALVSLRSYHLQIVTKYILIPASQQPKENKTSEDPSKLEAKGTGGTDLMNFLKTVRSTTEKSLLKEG
Test: Enzymatic IDO1 inhibition assay (ascorbate/methylene blue reduction system, HPLC detection of kynurenine)
Format: biochemical
Settings: for LE [kcal/mol/HA]: ligand efficiency, LE = -RT log(IC50)/number of heavy atoms, from enzymatic IC50; for IC50: enzymatic, L-Trp 100 µM, 0.01% Triton X-100, 5% DMSO, 20 min at room temperature, pH 6.5, duplicates
Procedure: Enzymatic IC50 values were measured with the ascorbate/methylene blue reduction system[85] in presence of a non-ionic detergent to reduce compound aggregation as described before[28]. Kynurenine and L-Trp concentrations were determined by HPLC through UV detection.
Full-length human IDO1 gene was cloned into the pET-28a vector and expressed in E. coli Rosetta (DE3) cells. […] The culture was harvested and frozen at −80 °C until further use. The frozen cells were lysed by sonication in 20 mM Tris pH 7, 400 mM NaCl, 1 mM MgCl2, 20 mM imidazole, 1 mM DTT, 0.5 mg/mL Lysozyme and Protease inhibitor. After centrifugation, the supernatant was loaded into a HisTrap HP column pre-equilibrated with buffer containing 20 mM Tris pH 7, 500 mM NaCl and 20 mM imidazole, and eluted with the same buffer containing 500 mM imidazole. Fractions containing IDO1 were pooled, concentrated, and injected on a size exclusion chromatography column (HiLoad Superdex S75 16/60) to increase purity. hIDO1 fractions were concentrated to 20 mg/mL in 20 mM Tris pH 7 and 150 mM NaCl.
The enzymatic inhibition assays were performed as described by Takikawa et al.[130] with some modifications. Briefly, the reaction mixture (100 µL) contained potassium phosphate buffer (100 mM, pH 6.5) ascorbic acid (20 mM), catalase (400 units/mL), methylene blue (10 µM), purified recombinant IDO1 (2.5 ng/µL), L-Trp (100 µM), Triton X-100 (0.01%) and DMSO (5 µL). The inhibitors were serially diluted 3-fold for at least 8 different concentrations. After incubation at room temperature for 20 min, the reaction was stopped in its linear phase by addition of trichloroacetic acid solution (40 mL, 30% w/v), and the samples were incubated at 50 °C for 30 min. After centrifugation, 80 µl of supernatant from each well were used for HPLC analysis. The mobile phase for HPLC analysis was composed of 50% (v/v) of methanol and 50% of sodium citrate buffer (40 mM, pH 2.4) containing 400 µM sodium dodecyl sulphate. […] All assays were carried out in duplicates. The activity (Act) of each compound was calculated as Act = RT log(IC50) in analogy to the relation between the binding free energy and the Ki value. The ligand efficiency (LE) was calculated as LE = −Act/NHA, where NHA is the number of non-hydrogen atoms (heavy atoms) in the compound.

| SMILES | LE [kcal/mol/HA] | IC50 (read-out: IC50 [ μ M] (SD)) [µM] | IC50 (IC50 [ μ M] (SD)) [µM] |
| --- | --- | --- | --- |
| Nc1ccc(Br)cc1-c1nnc[nH]1 [Compound 12] | 0.80 |  |  |
| Oc1ccc(-c2c[nH]nn2)cc1 [Compound 20, 4–(1,2,3-Triazol-4-yl)phenol] |  | > 1000 |  |
| Cc1cccc(-c2cnn[nH]2)c1 [Compound 21] | 0.53 |  |  |
| CCc1cccc(-c2cnn[nH]2)c1 [Compound 22] | 0.51 |  |  |
| CC(C)c1cccc(-c2c[nH]nn2)c1 [Compound 23, 4–(3-Isopropylphenyl)-1,2,3-triazole] | 0.35 | 280 |  |
| CCCCc1cccc(-c2c[nH]nn2)c1 [Compound 24, 4–(3-Butylphenyl)-1,2,3-triazole] | 0.41 | 34 |  |
| COc1cccc(OC)c1-c1c[nH]nn1 [Compound 45, 4–(2,6-Dimethoxyphenyl)-1,2,3-triazole] |  | > 1000 |  |
| Clc1cccc(Cl)c1-c1c[nH]nn1 [Compound 51, 4–(2,6-Dichlorophenyl)-1,2,3-triazole] | 0.37 | 280 |  |
| N#Cc1[nH]nnc1-c1ccccc1 [Compound 62, 4-Phenyl-1H-1,2,3-triazole-5-carbonitrile] | 0.34 | 630 |  |
| Cc1[nH]nnc1-c1cccc(Cl)c1 [Compound 63, 4–(3-Chlorophenyl)-5-methyl-1,2,3-triazole] |  | > 1000 |  |
| NC(=O)c1[nH]nnc1-c1cc(Cl)ccc1O [Compound 67] |  | > 1000 |  |
| c1ccc(Nc2cnn[nH]2)cc1 [Compound 79] |  | > 100 |  |
| c1ccc(Oc2cnn[nH]2)cc1 [Compound 82, 4-(Phenoxy)-1,2,3-triazole] |  | > 1000 |  |
| O=S(=O)(c1ccccc1)c1c[nH]nn1 [Compound 84, 4-(Phenylsulfonyl)-1H-1,2,3-triazole] |  | > 1000 |  |
| OC(c1ccccc1)c1c[nH]nn1 (stereo not drawn) [Compound 85, Phenyl(1,2,3-triazol-4-yl)methanol] |  | > 1000 |  |
| O=C(c1ccccc1)c1cnn[nH]1 [Compound 99, Phenyl(1H-1,2,3-triazol-5-yl)methanone] | 0.35 | 430 |  |
| O=C(c1cnn[nH]1)c1ccccc1Cl [Compound 100, (2-Chlorophenyl)(1H-1,2,3-triazol-5-yl)methanone] |  | > 1000 |  |
| COc1cccc(C(=O)c2cnn[nH]2)c1 [Compound 104, (3-Methoxyphenyl)(1H-1,2,3-triazol-5-yl)methanone] | 0.28 | 990 |  |
| O=C(Nc1c(Cl)cccc1-c1nc[nH]n1)c1ccccc1 [Compound 154, N-(2-Chloro-6-(1H-1,2,4-triazol-3-yl)phenyl)benzamide] |  | > 1000 |  |
| c1cc(-c2nc[nH]n2)ccn1 [Compound 158, 4-(1H-1,2,4-Triazol-3-yl)pyridine] |  | > 1000 |  |
| c1ccc(-c2nnc[nH]2)nc1 [Compound 159, 2-(1H-1,2,4-Triazol-3-yl)pyridine] |  |  | > 1000 |
| Nc1cccnc1-c1nc[nH]n1 [Compound 160, 2-(1H-1,2,4-Triazol-3-yl)pyridine-3-amine] | 0.55 | 16 |  |
| Nc1ccsc1-c1nc[nH]n1 [Compound 161, 2-(1H-1,2,4-Triazol-3-yl)thiophen-3-amine] | 0.57 | 10 |  |
| Clc1cncc(-c2nc[nH]n2)n1 [Compound 162, 2-Chloro-6-(1H-1,2,4-triazol-3-yl)pyrazine] | 0.41 | 250 |  |
| Cc1cccc2sc3nncn3c12 [Compound 167, tryclazole, reference compound] |  |  | > 1000 |
| NC(=O)CSc1nnc2sc3ccccc3n12 [Compound 168, 2-((1,9a-Dihydrobenzo[4,5]thiazolo[2,3-c][1,2,4]triazol-3-yl)thio)acetamide] |  | > 1000 |  |
| c1ccc(-n2cncn2)cc1 [Compound 170, 1-phenyl-1,2,4-triazole] | 0.38 | 870 |  |

Continued, in another order:

| LE [kcal/mol/HA] | IC50 (read-out: IC50 [ μ M] (SD)) [µM] | SMILES | IC50 (IC50 [ μ M] (SD)) [µM] |
| --- | --- | --- | --- |
|  | > 500 | c1ccc(COc2ccccc2-c2c[nH]nn2)cc1 [Compound 25, 4–(2-Benzyloxyphenyl)-1,2,3-triazole] |  |
| 0.26 | 160 | Oc1ccc(CCc2ccccc2)cc1-c1cnn[nH]1 [Compound 39, 4-Phenylethyl-2-(1H-1,2,3-triazol-5-yl)phenol] |  |
| 0.54 |  | Clc1ccc(Cl)c(-c2cnn[nH]2)c1 [Compound 46] |  |
| 0.44 | 58 | Clc1cc(Cl)cc(-c2c[nH]nn2)c1 [Compound 50, 4–(3,5-Dichlorophenyl)-1,2,3-triazole] |  |
|  | > 250 | c1ccc(Nc2[nH]nnc2-c2ccccc2)cc1 [Compound 80] |  |
| 0.37 | 590 | c1ccc(Sc2c[nH]nn2)cc1 [Compound 83, 4-(Phenylthio)-1,2,3-triazole] |  |
|  | > 1000 | O=C(Nc1ccccc1)c1cn[nH]n1 [Compound 86, N-Phenyl-1H-1,2,3-triazole-4-carboxamide] |  |
|  | > 1000 | CON=C(c1ccccc1)c1c[nH]nn1 [Compound 87, Phenyl(1H-1,2,3-triazol-4-yl)methanone O-methyl oxime] |  |
|  | > 100 | c1ccc2c(c1)ccc1nn[nH]c12 [Compound 88] |  |
|  | > 1000 | c1ccc2c(c1)Cc1n[nH]nc1-2 [Compound 89, 3,8-Dihydroindeno[1,2-d][1,2,3]triazole] |  |
| 0.33 | 450 | O=C(c1cccc(Cl)c1)c1cnn[nH]1 [Compound 101, (3-Chlorophenyl)(1H-1,2,3-triazol-5-yl)methanone] |  |
|  | > 1000 | COc1ccccc1C(=O)c1cnn[nH]1 [Compound 103, (2-Methoxyphenyl)(1H-1,2,3-triazol-5-yl)methanone] |  |
|  | > 1000 | O=C(c1cccc(O)c1)c1cnn[nH]1 [Compound 107, (3-Hydroxyphenyl)(1H-1,2,3-triazol-5-yl)methanone] |  |
|  | > 1000 | O=C(c1ccc(O)cc1)c1cnn[nH]1 [Compound 108, (4-Hydroxyphenyl)(1H-1,2,3-triazol-5-yl)methanone] |  |
|  | > 1000 | O=C(c1ccc(Br)cc1)c1[nH]nnc1CO [Compound 123, (4-Bromophenyl)(4-(hydroxymethyl)-1H-1,2,3-triazol-5-yl)methanone] |  |
|  | > 1000 | O=C(c1ccc(Br)cc1)c1[nH]nnc1CBr [Compound 124, (4-(Bromomethyl)-1H-1,2,3-triazol-5-yl)(4-bromophenyl)methanone] |  |
|  | > 1000 | NCc1nn[nH]c1C(=O)c1ccc(Br)cc1 [Compound 126, (4-(Aminomethyl)-1H-1,2,3-triazol-5-yl)(4-bromophenyl)methanone] |  |
|  | > 1000 | Fc1ccc(-c2nc[nH]n2)cc1 [Compound 134, 3–(4-Fluorophenyl)-1H-1,2,4-triazole] |  |
| 0.55 | 16 | Brc1cccc(-c2nc[nH]n2)c1 [Compound 135, 3–(3-Bromophenyl)-1H-1,2,4-triazole] |  |
| 0.43 | 160 | Fc1cccc(-c2nc[nH]n2)c1 [Compound 137, 3–(3-Fluorophenyl)-1H-1,2,4-triazole] |  |
|  | > 100 | O=C(Nc1ccccc1-c1nc[nH]n1)c1ccccc1 [Compound 152, N-(2-(1H-1,2,4-triazol-3-yl)phenyl)benzamide] |  |
| 0.41 | 63 | Cc1c(Br)ccc(N)c1-c1nc[nH]n1 [Compound 155, 4-Bromo-3-methyl-2-(1H-1,2,4-triazol-3-yl)aniline] |  |
|  | > 1000 | Brc1ccc(Nc2nnc[nH]2)cc1 [Compound 166, N-(4-Bromophenyl)-4H-1,2,4-triazol-3-amine] |  |
| 0.52 | 32 | Oc1ccccc1-n1cncn1 [Compound 171] |  |
